How the values were obtained:
[1] = tested on: H22 tumor cells; assay: Subcutaneous H22 murine liver cancer model, tumor growth inhibition; assay type: in vivo, mouse; settings: for TGI (%): H22 s.c., female BALB/c mice
Protocol: The objective of this pharmacology study was to evaluate the anti-tumor growth efficacy of Compound 85 in the treatment of the subcutaneous H22 murine liver cancer model in female BALB/c mice. Compound 85 test particles were delivered via PO when the average tumor volume reached approximately 80 mm^3. […] Tumor volumes and body weight were measured three times per week after the initiation of treatment.
The H22 tumor cells were maintained in vitro with RPMI-1640 medium supplemented with 10% fetal bovine serum at 37° C. in an atmosphere of 5% CO2. Cells in the exponential growth phase were harvested and quantified by cell counter before tumor inoculation.
Each mouse was inoculated subcutaneously in the right front flank region with H22 tumor cells (1×10e6) in 0.1 ml of PBS for tumor development.
The randomization started when the mean tumor size reaches approximately 79.89 mm^A3. […] Randomization was performed based on “Matched distribution” method/“Stratified” method (Study Director™ software, version 3.1.399.19)/randomized block design. The date of randomization was denoted as day 0.
(§1) After tumor inoculation, the animals were checked daily for morbidity and mortality. During routine monitoring, the animals were checked for any effects of tumor growth and treatments on behavior such as mobility, food and water consumption, body weight gain/loss (Body weights were measured thrice per week after randomization), eye/hair matting and any other abnormalities. Mortality and observed clinical signs were recorded for individual animals in detail.
(§2) Tumor volumes were measured three times per week after randomization in two dimensions using a caliper, and the volume was expressed in mm3 using the formula: V=(L×W×W)/2, where V is tumor volume, L is tumor length (the longest tumor dimension) and W is tumor width (the longest tumor dimension perpendicular to L). Dosing, as well as tumor and body weight measurements, were conducted in a Laminar Flow Cabinet.
Tumor growth inhibition (TGI): TGI % is an indication of antitumor activity, expressed as: TGI (%)=100×(1−T/C). T and C are the mean tumor volume (or weight) of the treated and control groups on a given day.
The treatment was performed for 21 days and the study was terminated on day 20 post dosing initiation.

[2] = tested on: CT26 tumor cells; assay: Subcutaneous CT26 murine colorectal cancer model (Example 5), tumor growth inhibition; assay type: in vivo, mouse; settings: CT26 s.c., female BALB/c mice
Protocol: (§3) The objective of this study was to evaluate the in vivo anti-tumor efficacy of Compound 85 in the subcutaneous CT26 murine colorectal cancer model in female BALB/c mice. Compound 85 test particle was delivered via PO when tumors reached 80 mm^3. The compound was assessed at six different dose levels (3 mpk, l0 mpk, 30 mpk for BID and 6 mpk, 20 mpk and 60 mpk for QD). Tumor volumes and body weight were measured twice per week after the initiation of treatment. Compound 85 level was assessed in the plasma and tumor at the end of the study.
The CT26 tumor cells were maintained in vitro with RPMI-1640 medium supplemented with 10% fetal bovine serum at 37° C. in an atmosphere of 5% CO2. The cells in exponential growth phase were harvested and quantitated by cell counter before tumor inoculation.
Each mouse was inoculated subcutaneously in the right lower flank region with CT26 tumor cells (5×10^5) in 0.1 ml of PBS.
The randomization started when the mean tumor size reaches approximately 80.7 mm^3. In total, 80 mice were enrolled in the study and randomly allocated into 8 study groups, with 10 mice per group. Randomization was performed based on the “Matched distribution” method (Study Director™ software, version 3.1.399.19). The date of randomization was denoted as day 0.
as §1, with “weights would be” for “weights were”, “measured twice” for “measured thrice”
as §2, with “twice” for “three times”, “Dosing” for “Dosing,”, “measurements” for “measurements,”

[3] = tested on: CT26 tumor cells; assay: Subcutaneous CT26 murine colorectal cancer model (Example 6), tumor growth inhibition; assay type: in vivo, mouse; settings: day 13, CT26 s.c., female BALB/c mice
Protocol: The objective of this study was to evaluate preclinically the in vivo dose of test compounds in the treatment of the subcutaneous CT26 murine colorectal cancer model in female BALB/c mice.
The CT26 tumor cells were maintained in vitro with RPMI-1640 medium supplemented with 10% fetal bovine serum at 37° C. in an atmosphere of 5% CO2 in air. The cells in exponential growth phase was harvested and quantitated by cell counter before tumor inoculation.
Each mouse was inoculated subcutaneously in the right lower flank region with CT26 tumor cells (5×10^5) in 0.1 ml of PBS for tumor development.
The randomization started when the mean tumor size reaches approximately 89.91 mm^3. Totally 80 mice were enrolled in the study and randomly allocated to 8 study groups, with 10 mice per group. Randomization was performed based on “Matched distribution” method (Study Director™ software, version 3.1.399.19). The date of randomization was denoted as day 0 (Jul. 8, 2021).
as §1, with “weights would be” for “weights were”, “measured twice” for “measured thrice”
as §2, with “twice” for “three times”, “Dosing” for “Dosing,”, “measurements” for “measurements,”
Tumor growth inhibition (TGI): TGI % is an indication of antitumor activity, and expressed as: TGI (%)=100×(1−T/C). T and C are the mean tumor volume (or weight) of the treated and control groups, respectively, on a given day.
The treatment was performed for 14 days. There was no extension of the treatment, the study was terminated on Day 13 post dosing initiation.
To compare tumor volumes of different groups at a pre-specified day, Bartlett's test was used to check the assumption of homogeneity of variance across all groups. When the p-value of Bartlett's test was >=0.05, we ran one-way ANOVA to test overall equality of means across all groups. If the p-value of the one-way ANOVA was <0.05, post hoc testing was performed by running Tukey's HSD (honest significant difference) tests for all pairwise comparisons, and Dunnett's tests for comparing each treatment group with the vehicle group. […]

[4] = Body weight and mortality monitoring in CT26 model (Example 5); assay type: in vivo
Protocol: as §3
as §1, with “weights would be” for “weights were”, “measured twice” for “measured thrice”
The body weights and tumor volumes were measured by using Study Director™ software (version 3.1.399.19).

| SMILES | TGI (%) ([1]; 60 mpk BID p.o.) | TGI(%) on Day 18 ([2]; 30 mpk BID p.o.) [%] | TGI (%) ([3]; 30 mg/kg BID p.o.) | TGI (%) ([3]; 60 mg/kg BID p.o.) | TGI (%) ([3]; 100 mg/kg BID p.o.) | TGI (%) ([1]; 2 mpk QD p.o.) | TGI (%) ([1]; 10 mpk QD p.o.) | TGI (%) ([1]; 20 mpk QD p.o.) | TGI (%) ([1]; 40 mpk QD p.o.) | minimal efficacious dose (lowest dose showing significant tumor inhibition) ([1]; QD p.o., single agent) [mpk] | maximum TGI ([1]; high doses, 20 mpk or 40 mpk QD) [%] | TGI(%) on Day 18 ([2]; 3 mpk BID p.o.) [%] | TGI(%) on Day 18 ([2]; 6 mpk QD p.o.) [%] | TGI(%) on Day 18 ([2]; 10 mpk BID p.o.) [%] | TGI(%) on Day 18 ([2]; 20 mpk QD p.o.) [%] | TGI(%) on Day 18 ([2]; 60 mpk QD p.o.) [%] | loss of average body weight ([4]; day 3, 30 mpk BID p.o.) | loss of average body weight ([4]; day 3, 60 mpk QD p.o.) | mortality ([4]; mouse, in vivo) |
| --- | --- | --- | --- | --- | --- | --- | --- | --- | --- | --- | --- | --- | --- | --- | --- | --- | --- | --- | --- |
| C[C@H]1CCCN(Cc2cc(C(F)(F)F)c3cn(-c4cccc(C5(Cc6nncn6C)COC5)c4)c(=O)n3c2)C1 [Compound 29] | 63.97 | 17.3 | 10.78 | 41.76 | 50.83 | – | – | – | – | – | – | – | – | – | – | – | – | – | – |
| C[C@H]1CCCN(Cc2cc(C(F)(F)F)c3cn(-c4cncc([C@H](c5nncn5C)C5CCC5)c4)c(=O)n3c2)C1 [Compound 85] | – | 37.9 | 43.02 | – | – | 19.56 | 41.21 | 68.54 | 64.65 | 6 | ~65 | 18.7 | 3.8 | 24.4 | 22.2 | 33.9 | less than 5% | less than 5% | No mortality was reported |

Reference: patent US20250161278A1, “CBL-B INHIBITOR, COMPOSITIONS COMPRISING A CBL-B INHIBITOR IN A METHOD OF TREATING A DISEASE ASSOCIATED WITH CELL PROLIFERATION” (HOTSPOT THERAPEUTICS, INC., priority 2022, published 2025)
